# Results from ChEMBL document CHEMBL3046007, “Isonicotinic acid hydrazide derivatives: synthesis, antimicrobial activity, and QSAR studies” (Med Chem Res, 2012).
# Tested on: Candida albicans
# Assay: Antimicrobial activity against Candida albicans after 48 hr by serial dilution method
# Type: functional
# Settings: not given
row,SMILES,-logMIC
1,CSc1ccc(/C=N/NC(=O)c2ccncc2)cc1,2.34
2,COc1cc(/C=N/NC(=O)c2ccncc2)ccc1O [FTIVAZIDE],2.34
3,Cc1ccc(/C=N/NC(=O)c2ccncc2)cc1 [N'-(4-METHYLBENZYLIDENE)ISONICOTINOHYDRAZIDE],2.28

# Tested on: Human immunodeficiency virus 1
# Assay: Antiviral activity against Human immunodeficiency virus 1 IIIB infected human MT4 cells assessed as inhibition of virus-induced cytopathicity
# Type: functional, organism-based
# Settings: not given
row,SMILES,EC50 [µg/mL]
1,CSc1ccc(/C=N/NC(=O)c2ccncc2)cc1,> 59
2,COc1cc(/C=N/NC(=O)c2ccncc2)ccc1O [FTIVAZIDE],> 89
3,Cc1ccc(/C=N/NC(=O)c2ccncc2)cc1 [N'-(4-METHYLBENZYLIDENE)ISONICOTINOHYDRAZIDE],> 25

# Tested on: Punta Toro virus
# Assay: Antiviral activity against Punta Toro virus infected Vero cells assessed as inhibition of virus-induced cytopathicity
# Type: functional, organism-based
# Settings: not given
row,SMILES,EC50 [µg/mL]
1,CSc1ccc(/C=N/NC(=O)c2ccncc2)cc1,> 100
2,COc1cc(/C=N/NC(=O)c2ccncc2)ccc1O [FTIVAZIDE],> 100
3,Cc1ccc(/C=N/NC(=O)c2ccncc2)cc1 [N'-(4-METHYLBENZYLIDENE)ISONICOTINOHYDRAZIDE],> 20

# Tested on: Human respirovirus 3
# Assay: Antiviral activity against Human parainfluenza virus 3 infected Vero cells assessed as inhibition of virus-induced cytopathicity
# Type: functional, organism-based
# Settings: Human respirovirus 3, Vero
row,SMILES,EC50 [µg/mL]
1,CSc1ccc(/C=N/NC(=O)c2ccncc2)cc1,> 100
2,COc1cc(/C=N/NC(=O)c2ccncc2)ccc1O [FTIVAZIDE],> 100
3,Cc1ccc(/C=N/NC(=O)c2ccncc2)cc1 [N'-(4-METHYLBENZYLIDENE)ISONICOTINOHYDRAZIDE],> 20

# Tested on: Human immunodeficiency virus 2
# Assay: Antiviral activity against Human immunodeficiency virus type 2 (ISOLATE ROD) infected human MT4 cells assessed as inhibition of virus-induced cytopathicity
# Type: functional, organism-based
# Settings: Human immunodeficiency virus 2, ISOLATE ROD
row,SMILES,EC50 [µg/mL]
1,CSc1ccc(/C=N/NC(=O)c2ccncc2)cc1,> 59
2,COc1cc(/C=N/NC(=O)c2ccncc2)ccc1O [FTIVAZIDE],> 89
3,Cc1ccc(/C=N/NC(=O)c2ccncc2)cc1 [N'-(4-METHYLBENZYLIDENE)ISONICOTINOHYDRAZIDE],> 25

# Tested on: Sindbis virus
# Assay: Antiviral activity against Sindbis virus infected Vero cells assessed as inhibition of virus-induced cytopathicity
# Type: functional, organism-based
# Settings: not given
row,SMILES,EC50 [µg/mL]
1,CSc1ccc(/C=N/NC(=O)c2ccncc2)cc1,> 100
2,COc1cc(/C=N/NC(=O)c2ccncc2)ccc1O [FTIVAZIDE],> 100
3,Cc1ccc(/C=N/NC(=O)c2ccncc2)cc1 [N'-(4-METHYLBENZYLIDENE)ISONICOTINOHYDRAZIDE],> 20

# Tested on: not listed separately
# Assay: Cytotoxicity against Chlorocebus aethiops (African green monkey) Vero cells assessed as alteration in cell morphology
# Type: cell-based
# Settings: chlorocebus sabaeus
row,SMILES,MCC [µg/mL]
1,CSc1ccc(/C=N/NC(=O)c2ccncc2)cc1,≥ 100
2,COc1cc(/C=N/NC(=O)c2ccncc2)ccc1O [FTIVAZIDE],> 100
3,Cc1ccc(/C=N/NC(=O)c2ccncc2)cc1 [N'-(4-METHYLBENZYLIDENE)ISONICOTINOHYDRAZIDE],≥ 20

# Tested on: Respiratory syncytial virus
# Assay: Antiviral activity against Respiratory syncytial virus infected human HeLa cells assessed as inhibition of virus-induced cytopathicity
# Type: functional, organism-based
# Settings: not given
row,SMILES,EC50 [µg/mL]
1,CSc1ccc(/C=N/NC(=O)c2ccncc2)cc1,> 20
2,COc1cc(/C=N/NC(=O)c2ccncc2)ccc1O [FTIVAZIDE],> 20
3,Cc1ccc(/C=N/NC(=O)c2ccncc2)cc1 [N'-(4-METHYLBENZYLIDENE)ISONICOTINOHYDRAZIDE],> 20

# Tested on: Human alphaherpesvirus 1
# Assay: Antiviral activity against Human herpesvirus 1 strain KOS infected in human HEL cells assessed as inhibition of virus-induced cytopathicity
# Type: functional, organism-based
# Settings: Human alphaherpesvirus 1, KOS
row,SMILES,EC50 [µg/mL]
1,CSc1ccc(/C=N/NC(=O)c2ccncc2)cc1,> 100
2,COc1cc(/C=N/NC(=O)c2ccncc2)ccc1O [FTIVAZIDE],> 100
3,Cc1ccc(/C=N/NC(=O)c2ccncc2)cc1 [N'-(4-METHYLBENZYLIDENE)ISONICOTINOHYDRAZIDE],> 100

# Tested on: Human alphaherpesvirus 1
# Assay: Antiviral activity against TK(-) aciclovir-resistant Human herpesvirus 1 strain KOS infected in human HEL cells assessed as inhibition of virus-induced cytopathicity
# Type: functional, organism-based
# Settings: Human alphaherpesvirus 1, KOS
row,SMILES,EC50 [µg/mL]
1,CSc1ccc(/C=N/NC(=O)c2ccncc2)cc1,> 100
2,COc1cc(/C=N/NC(=O)c2ccncc2)ccc1O [FTIVAZIDE],> 100
3,Cc1ccc(/C=N/NC(=O)c2ccncc2)cc1 [N'-(4-METHYLBENZYLIDENE)ISONICOTINOHYDRAZIDE],> 100

# Tested on: Vesicular stomatitis virus
# Assay: Antiviral activity against Vesicular stomatitis virus infected human HeLa cells assessed as inhibition of virus-induced cytopathicity
# Type: functional, organism-based
# Settings: not given
row,SMILES,EC50 [µg/mL]
1,CSc1ccc(/C=N/NC(=O)c2ccncc2)cc1,> 20
2,COc1cc(/C=N/NC(=O)c2ccncc2)ccc1O [FTIVAZIDE],> 20
3,Cc1ccc(/C=N/NC(=O)c2ccncc2)cc1 [N'-(4-METHYLBENZYLIDENE)ISONICOTINOHYDRAZIDE],> 20

# Tested on: Mammalian orthoreovirus 1
# Assay: Antiviral activity against Mammalian orthoreovirus 1 infected Vero cells assessed as inhibition of virus-induced cytopathicity
# Type: functional, organism-based
# Settings: Mammalian orthoreovirus 1, Vero
row,SMILES,EC50 [µg/mL]
1,CSc1ccc(/C=N/NC(=O)c2ccncc2)cc1,> 100
2,COc1cc(/C=N/NC(=O)c2ccncc2)ccc1O [FTIVAZIDE],> 100
3,Cc1ccc(/C=N/NC(=O)c2ccncc2)cc1 [N'-(4-METHYLBENZYLIDENE)ISONICOTINOHYDRAZIDE],> 20

# Tested on: Escherichia coli
# Assay: Antimicrobial activity against Escherichia coli after 24 hr by serial dilution method
# Type: functional
# Settings: not given
row,SMILES,-logMIC
1,CSc1ccc(/C=N/NC(=O)c2ccncc2)cc1,2.34
2,COc1cc(/C=N/NC(=O)c2ccncc2)ccc1O [FTIVAZIDE],2.34
3,Cc1ccc(/C=N/NC(=O)c2ccncc2)cc1 [N'-(4-METHYLBENZYLIDENE)ISONICOTINOHYDRAZIDE],1.98

# Tested on: not listed separately
# Assay: Cytotoxicity against Homo sapiens (human) HEL cells
# Type: cell-based
# Settings: not given
row,SMILES,MCC [µg/mL]
1,CSc1ccc(/C=N/NC(=O)c2ccncc2)cc1,> 100
2,COc1cc(/C=N/NC(=O)c2ccncc2)ccc1O [FTIVAZIDE],> 100
3,Cc1ccc(/C=N/NC(=O)c2ccncc2)cc1 [N'-(4-METHYLBENZYLIDENE)ISONICOTINOHYDRAZIDE],> 100

# Tested on: Staphylococcus aureus
# Assay: Antimicrobial activity against Staphylococcus aureus after 24 hr by serial dilution method
# Type: functional
# Settings: not given
row,SMILES,-logMIC
1,CSc1ccc(/C=N/NC(=O)c2ccncc2)cc1,2.04
2,COc1cc(/C=N/NC(=O)c2ccncc2)ccc1O [FTIVAZIDE],2.04
3,Cc1ccc(/C=N/NC(=O)c2ccncc2)cc1 [N'-(4-METHYLBENZYLIDENE)ISONICOTINOHYDRAZIDE],1.98

# Tested on: Human alphaherpesvirus 2
# Assay: Antiviral activity against Human herpesvirus 2 strain G infected human HEL cells assessed as inhibition of virus-induced cytopathicity
# Type: functional, organism-based
# Settings: Human alphaherpesvirus 2, strain G
row,SMILES,EC50 [µg/mL]
1,CSc1ccc(/C=N/NC(=O)c2ccncc2)cc1,> 100
2,COc1cc(/C=N/NC(=O)c2ccncc2)ccc1O [FTIVAZIDE],> 100
3,Cc1ccc(/C=N/NC(=O)c2ccncc2)cc1 [N'-(4-METHYLBENZYLIDENE)ISONICOTINOHYDRAZIDE],> 100

# Tested on: Aspergillus niger
# Assay: Antimicrobial activity against Aspergillus niger after 7 days by serial dilution method
# Type: functional
# Settings: not given
row,SMILES,-logMIC
1,CSc1ccc(/C=N/NC(=O)c2ccncc2)cc1,2.34
2,COc1cc(/C=N/NC(=O)c2ccncc2)ccc1O [FTIVAZIDE],2.34
3,Cc1ccc(/C=N/NC(=O)c2ccncc2)cc1 [N'-(4-METHYLBENZYLIDENE)ISONICOTINOHYDRAZIDE],2.28

# Tested on: Coxsackievirus B4
# Assay: Antiviral activity against Human coxsackievirus B4 infected Vero cells assessed as inhibition of virus-induced cytopathicity
# Type: functional, organism-based
# Settings: Enterovirus B
row,SMILES,EC50 [µg/mL]
1,CSc1ccc(/C=N/NC(=O)c2ccncc2)cc1,9
2,COc1cc(/C=N/NC(=O)c2ccncc2)ccc1O [FTIVAZIDE],> 100
3,Cc1ccc(/C=N/NC(=O)c2ccncc2)cc1 [N'-(4-METHYLBENZYLIDENE)ISONICOTINOHYDRAZIDE],> 20

# Tested on: Coxsackievirus B4
# Assay: Antiviral activity against Human coxsackievirus B4 infected human HeLa cells assessed as inhibition of virus-induced cytopathicity
# Type: functional, organism-based
# Settings: Enterovirus B
row,SMILES,EC50 [µg/mL]
1,CSc1ccc(/C=N/NC(=O)c2ccncc2)cc1,> 20
2,COc1cc(/C=N/NC(=O)c2ccncc2)ccc1O [FTIVAZIDE],> 20
3,Cc1ccc(/C=N/NC(=O)c2ccncc2)cc1 [N'-(4-METHYLBENZYLIDENE)ISONICOTINOHYDRAZIDE],9

# Tested on: not listed separately
# Assay: Cytotoxicity against Homo sapiens (human) HeLa cells
# Type: cell-based
# Settings: not given
row,SMILES,MCC [µg/mL]
1,CSc1ccc(/C=N/NC(=O)c2ccncc2)cc1,100
2,COc1cc(/C=N/NC(=O)c2ccncc2)ccc1O [FTIVAZIDE],100
3,Cc1ccc(/C=N/NC(=O)c2ccncc2)cc1 [N'-(4-METHYLBENZYLIDENE)ISONICOTINOHYDRAZIDE],100

# Tested on: Bacillus subtilis
# Assay: Antimicrobial activity against Bacillus subtilis after 24 hr by serial dilution method
# Type: functional
# Settings: not given
row,SMILES,-logMIC
1,CSc1ccc(/C=N/NC(=O)c2ccncc2)cc1,2.04
2,COc1cc(/C=N/NC(=O)c2ccncc2)ccc1O [FTIVAZIDE],2.04
3,Cc1ccc(/C=N/NC(=O)c2ccncc2)cc1 [N'-(4-METHYLBENZYLIDENE)ISONICOTINOHYDRAZIDE],1.98

# Tested on: not listed separately
# Assay: Cytotoxicity against Homo sapiens (human) MT4 cells
# Type: cell-based
# Settings: not given
row,SMILES,CC50 [µg/mL]
1,CSc1ccc(/C=N/NC(=O)c2ccncc2)cc1,59
2,COc1cc(/C=N/NC(=O)c2ccncc2)ccc1O [FTIVAZIDE],≥ 89
3,Cc1ccc(/C=N/NC(=O)c2ccncc2)cc1 [N'-(4-METHYLBENZYLIDENE)ISONICOTINOHYDRAZIDE],25

# Tested on: Vaccinia virus
# Assay: Antiviral activity against Vaccinia virus infected human HEL cells assessed as inhibition of virus-induced cytopathicity
# Type: functional, organism-based
# Settings: Orthopoxvirus vaccinia
row,SMILES,EC50 [µg/mL]
1,CSc1ccc(/C=N/NC(=O)c2ccncc2)cc1,> 100
2,COc1cc(/C=N/NC(=O)c2ccncc2)ccc1O [FTIVAZIDE],> 100
3,Cc1ccc(/C=N/NC(=O)c2ccncc2)cc1 [N'-(4-METHYLBENZYLIDENE)ISONICOTINOHYDRAZIDE],> 100
